For data set [1] the following is noted: in vivo; cited from earlier work.
The conditions of data set [2]: adults; cited from earlier work.
The subject of the next data set is HCMV-eGFP-fLuc. Put plainly: HCMV bioluminescence dose-response assay in HFFs. Format: cell-based, human cytomegalovirus. Particulars: unbuffered and buffered medium. The protocol: (§1) VZV- or HCMV-infected cells were measured by bioluminescence imagining in the efficacy or dose-response assay. Assays were performed as previously described, with a few modifications. […] Next, cells were infected at a MOI of approximately 0.05 with either VZV-ORF57-Luc or HCMV-eGFP-fLuc, both which expresses firefly luciferase, in either standard DMEM (10% FBS) or DMEM (10% FBS) buffered with 3.024 g/L sodium bicarbonate.
(§2) Antiviral Test Compositions were prepared in the two media, added at the time of infection, and remained for the duration of the assay. VZV cultures were scanned at 72 h post-infection, and HCMV cultures were scanned at 7 days post-infection. Each plate contained untreated wells in each media condition (unbuffered or buffered) as a baseline. Test Composition in unbuffered medium, Test Composition in buffered medium, cidofovir positive control (CDV; for VZV) or ganciclovir positive control (GCV; for HCMV) in unbuffered medium, and CDV (for VZV) or GCV (for HCMV) in buffered medium. All graphs, EC50, and CC50 calculations were performed using GraphPad. Test Composition concentrations ranged from 3.2 μM to 50 mM in a 1:5 dilution series based on Lysine concentrations. Cidofovir concentrations ranged from 0.00128 to 20 μM in a 1:5 dilution series. Ganciclovir concentrations ranged from 0.0064 to 100 μM in a 1:5 dilution series.

Data set [3] concerns human foreskin fibroblasts (HFFs). Particulars: Buffered DMEM, 7 d.
Method: (§6) For the cell effect in absence of virus assay, ARPE-19 cells or HFFs were seeded into 96-well plates and grown for 72 h as described above. Cells were treated with Test Composition in either unbuffered or buffered medium ranging from 1 μM to 100 mM (1:10 dilution). Cidofovir was tested in a range from 0.001 to 100 μM (1:10 dilution). Ganciclovir was tested in a range from 0.002 to 200 μM (1:10 dilution). ARPE-19 cells were treated with Test Composition or Cidofovir for 72 h, then cells were stained with Neutral Red dye and absorbance was measured at 540 nm. HFFs were treated with original Test Composition or Ganciclovir for 7 d, then cells were stained with Neutral Red dye and absorbance was measured at 540 nm.
The nature of data set [4]: in vitro. Particulars: human, human foreskin fibroblasts (HFFs).
Method: as §6
A further data set relates to HSV-1 R8411. The experiment in a line: microbe, parasite or virus in culture. It is filed as cell-based, herpes simplex virus 1. The note with it: for efficacy against HSV-1 (in words): ARPE-19, 24 h post-infection; for EC50: Human alphaherpesvirus 1, ARPE-19, 24 h, 24 h; for SI (CC50/EC50): Table 10, HSV1, buffered medium. How it is done: (§3) Next, cells were infected at a MOI of 0.05 with either HSV-1 R8411 or HSV-2-Luc, both which expresses firefly luciferase, in either standard DMEM medium (10% FBS) or standard DMEM medium (10% FBS) buffered with 3.024 g/L sodium bicarbonate. Treatments were prepared in the different medium conditions and added at the time of infection. All assays were imaged at 24 h post-infection and/or treatment. The compounds tested for this experiment included: Test Composition in unbuffered medium, Test Composition in buffered medium, acyclovir in unbuffered medium and acyclovir in buffered medium. All graphs, EC50, CC50, and CC50/EC50 calculations were performed using GraphPad software based on Lysine equivalent concentrations.
(§4) HSV-1 or HSV-2 infected cells were measured by bioluminescence imagining in the dose-response assay. Each plate contained a set of untreated wells in each media condition (unbuffered or buffered) to be used as baseline. Test composition concentrations ranged from 3.2 μM to 50 mM in a 1:5 dilution series. Acyclovir concentrations ranged from 0.00256 to 40 μM in a 1:5 dilution series.
(§5) Assays were performed as previously described. […] Next, cells were infected at a MOI of approximately 0.05 with either HSV-1 R8411 or HSV-2 MS-Luciferase, both which expresses firefly luciferase, in DMEM (10% FBS) buffered with 3.024 g/L sodium bicarbonate. Antiviral compounds were prepared in the buffered media, added at the time of infection, and remained for the duration of the assay. Both HSV1 and HSV2 cultures were scanned at 24 h post-infection. Each plate contained untreated wells as a baseline for comparison. The solutions evaluated included original Test Composition and various sets of its components, as well as acyclovir (ACV; control). The table below includes a breakdown of all the different component formulations. Graphs were produced, EC50, and CC50 calculations were performed using GraphPad. Concentrations for Test Composition and its components ranged from 3.2 μM to 50 mM in a 1:5 dilution series. Acyclovir concentrations ranged from 0.00256 to 40 μM in a 1:5 dilution series.

Another data set relates to HSV-2-Luc. Put plainly: microbe, parasite or virus in culture. Format: cell-based, herpes simplex virus 2. The note with it: for efficacy against HSV-2 (in words): ARPE-19, 24 h post-infection; for EC50: Human alphaherpesvirus 2, ARPE-19, 24 h, 24 h; for SI (CC50/EC50): Table 10, HSV2, buffered medium. How it is done: as §3, §4, §5
Data set [5] is described as follows: in vitro. It is filed as cell-based. The note with it: human, Table 10 HSV1 half, ARPE-19, buffered medium. How it is done:
as §5

The subject of the next data set is VZV-ORF57-Luc. Put plainly: microbe, parasite or virus in culture. Format: cell-based, varicella zoster virus. The note with it: for EC50: Human alphaherpesvirus 3, ARPE-19, 72 h, 72 h. The protocol:
as §1, §2

Data set [6] in a line: Cell effect in absence of virus assay, ARPE-19 cells, 72 h, Neutral Red. Particulars: human, ARPE-19 cells, ARPE-19, Unbuffered DMEM. Format: cell-based.
For the next data set, the system named is ARPE-19 cells. Described as above. Format: cell-based. Particulars: ARPE-19, Buffered DMEM.

A value given as a limit tells only on which side of the number the result lay.

The term EC50 denotes the concentration needed to bring the measured effect to its halfway point.

As for `CC(C)[C@H](N)C(=O)OCCOCn1cnc2c(=O)[nH]c(N)nc21` [Valacyclovir], the fraction eliminated renally in [1] is recorded as 89%.

With `Cc1ncc(CO)c(CO)c1O` [Vitamin B6, Pyridoxine], in [2], the intake usually safe result is “up to 200 mg per day”.

Consider `Nc1nc(O)c2ncn(COC(CO)CO)c2n1` [Ganciclovir, ganciclovir], for which, in the data set with HCMV-eGFP-fLuc, the “efficacy against HCMV (in words)” value was “not effective”. For the same molecule, the CC50 in data set [3] is > 200 µM. The CC50 at 7 d in “in vitro [4]” is > 200 µM.

Regarding `Nc1nc2c(ncn2COCCO)c(=O)[nH]1` [Acyclovir, acyclovir], the “efficacy against HSV-1 (in words)” value was “worked” in the data set on HSV-1 R8411 and “effective” in the data set on HSV-1 R8411 (listed as acyclovir). The EC50 with HSV-1 R8411 (HSV-1, ARPE-19, Buffered DMEM (sodium bicarbonate)) was determined as 0.156 µM; with HSV-1 R8411 (HSV-1, ARPE-19, Unbuffered DMEM, Lysine equivalent concentration), 0.645 µM; in the data set on HSV-1 R8411 (Table 10, HSV1, ARPE-19, buffered medium, curves plotted as L-lysine HCl or acyclovir concentration (uM), FIG. 5), 0.225 µM; in the data set on HSV-2-Luc (HSV-2, ARPE-19, Buffered DMEM), 6.66 µM; in the data set with HSV-2-Luc (HSV-2, ARPE-19, Unbuffered DMEM), 7.89 µM; with HSV-2-Luc (Table 10, HSV2, ARPE-19, buffered medium, curves plotted as L-lysine HCl or acyclovir concentration (uM), FIG. 6), 33.1 µM. The “SI (CC50/EC50)” value amounted to 444.44 in the data set with HSV-1 R8411 and 3.02 with HSV-2-Luc. For the same molecule, the results for the “efficacy against HSV-2 (in words)” value in the data set on HSV-2-Luc and in the data set on HSV-2-Luc (listed as acyclovir) were “worked” and “effective”, respectively. In the data set “in vitro [5]”, the CC50 at 24 h was ≥ 100 µM.

For `Nc1ccn(C[C@@H](CO)OCP(=O)(O)O)c(=O)n1` [Cidofovir, cidofovir], the “efficacy against VZV (in words)” value in the data set with VZV-ORF57-Luc (ARPE-19, unbuffered and buffered medium) is “effective”. Further, the 50% effective concentration (EC50) in the data set with VZV-ORF57-Luc (VZV, ARPE-19, Buffered DMEM) turned out to be 19 µM; in the data set on VZV-ORF57-Luc (VZV, ARPE-19, Unbuffered DMEM), 1.72 µM. For the same molecule, the “increase of EC50 in buffered medium versus unbuffered medium” value in the data set with VZV-ORF57-Luc (VZV) is recorded as 10 fold. The “SI (CC50/EC50)” value amounted to 5.3 in the data set on VZV-ORF57-Luc (VZV, Buffered DMEM) and 58.2 with VZV-ORF57-Luc (VZV, Unbuffered DMEM). For the same molecule, the CC50 at 72 h in data set [6] was > 100 µM. The CC50 in the data set with ARPE-19 cells was > 100 µM.

In the case of `Cl.NCCCC[C@H](N)C(=O)O` [Solution 2, L-lysine monohydrochloride], the “rank of efficacy among test solutions 1-11 against HSV1” value in the data set with HSV-1 R8411 (ARPE-19, buffered medium) is given as “least effective”. The entries for the “SI (CC50/EC50)” value with HSV-1 R8411 and in the data set on HSV-2-Luc were 5 and 2.5, respectively. Moreover, the “rank of efficacy among test solutions 1-11 against HSV2” value with HSV-2-Luc (ARPE-19, buffered medium) was “least effective”.

The record behind these values is patent US20250057865A1, “ANTIVIRAL SUPPLEMENT FORMULATIONS FOR HERPESVIRUS INFECTIONS” (priority 2023, published 2025).
